Source: ChEMBL document CHEMBL1152103, “U-87947E, a protein quinolone antibacterial agent incorporating a bicyclo[1.1.1]pent-1-yl (BCP) subunit” (1993)
Values after ≈ are worked out from the molar mass of the structure shown.

Columns and labels:
Format in all cases: functional
Escherichia coli = experiment: The compound was tested for its antibacterial activity against Escherichia coli (21 strains)
Enterococcus faecalis = experiment: The compound was tested for its antibacterial activity against Enterococcus faecalis (10 strains)
Haemophilus influenzae = experiment: The compound was tested for its antibacterial activity against Haemophilus influenzae (10 strains)
Pseudomonas aeruginosa = experiment: The compound was tested for its antibacterial activity against Pseudomonas aeruginosa (20 strains)
Streptococcus pyogenes = experiment: The compound was tested for its antibacterial activity against Streptococcus pyogenes (10 strains)
Bacteroides fragilis = experiment: The compound was tested for its antibacterial activity against Bacteroides fragilis (12 strains)
Staphylococcus aureus [1] = experiment: The compound was tested for its antibacterial activity against Staphylococcus aureus (12 strains)
Staphylococcus aureus [2] = experiment: The compound was tested for its antibacterial activity against Staphylococcus aureus, ciprofloxacin resistant (14 strains)
Streptococcus pneumoniae = experiment: The compound was tested for its antibacterial activity against Streptococcus pneumoniae (10 strains), expressed as MIC90

| SMILES | MIC90 (Escherichia coli) [µg/mL] | MIC90 (Enterococcus faecalis) [µg/mL] | MIC90 (Haemophilus influenzae) [µg/mL] | MIC90 (Pseudomonas aeruginosa) [µg/mL] | MIC90 (Streptococcus pyogenes) [µg/mL] | MIC90 (Bacteroides fragilis) [µg/mL] | MIC90 (Staphylococcus aureus [1]) [µg/mL] | MIC90 (Staphylococcus aureus [2]) [µg/mL] | MIC90 (Streptococcus pneumoniae) [µg/mL] |
| --- | --- | --- | --- | --- | --- | --- | --- | --- | --- |
| CS(=O)(=O)O.C[C@H]1CN(c2c(F)cc3c(=O)c(C(=O)O)cn(C45CC(C4)C5)c3c2F)C[C@H]1CN | 0.125 | 0.25 | 0.06 | 8 | 0.125 | 1 | 0.125 | 0.5 | 0.125 |
| O=C(O)c1cn(C2CC2)c2cc(N3CCNCC3)c(F)cc2c1=O [CIPROFLOXACIN] | 0.03 (≈ 0.0905 µM) | 2 (≈ 6.04 µM) | 0.015 (≈ 0.0453 µM) | 2 (≈ 6.04 µM) | 0.5 (≈ 1.51 µM) | 8 (≈ 24.1 µM) | 1 (≈ 3.02 µM) | > 16 | 1 (≈ 3.02 µM) |
